Laboratory results as given in paper PMC2360155, “Novel retinoic acid metabolism blocking agents have potent inhibitory activities on human breast cancer cells and tumour growth” (British Journal of Cancer, 2007).

How the values were obtained:
caspase-9 = test: Western immunoblotting for caspase-9 in T47D cells; type: cell-based, human; conditions: 6 days
Description: (§1) At the end of the treatment, cells were scrapped and collected by washing with ice-cold PBS in a centrifuge tube. Cells were centrifuged at 2500 r.p.m. for 10 min, the pellet was again washed with ice-cold PBS and centrifuged. The cell pellet was then suspended in chilled cell lysis buffer (0.1 M Tris–HCl, 0.5% Triton X-100, protease inhibitor cocktail) and sonicated on ice for 10–15 s. The homogenate was kept on ice for 30 min and then centrifuged at 13 000 r.p.m. for 30 min. The supernatant was used as cell lysate. The cell lysates were stored at −80°C. Protein concentration of the cell lysates was determined using Bio-Rad protein assay reagents.
Protein lysates from MCF-7 and T47D cells were subjected to sodium dodecyl sulphate–polyacrylamide gel electrophoresis (SDS–PAGE) and immunoblotted for different proteins. Equal amounts of protein (25–50 μg) were subjected to SDS–PAGE at 60 V for 3 h using the mini PROTEAN3 electrophoresis module assembly (Bio-Rad, Hercules, CA, USA), and transferred to nitrocellulose membranes (Hybond ECL, Amersham). Immunodetections were carried out using antibodies against CK 8/18 (1° antibody – 1 : 8000 in 10% milk PBST), E-cadherin (1° antibody – 1 : 1000 in 5% milk in TBST) and ER-α (1° antibody – 1 : 200 in 5% milk PBST) purchased from Santa Cruz Biotechnology Inc. Antibodies against PARP (1° antibody – 1 : 1000 in 5% milk TBST), cyclin- D1 (1° antibody – 1 : 2000 in 10% milk TBST), caspase-9 (1° antibody – 1 : 1000 in 10% milk TBST) and BAD (1° antibody – 1 : 1000 in 5% BSA TBST) were obtained from Cell Signaling Technology. Antibody for β-actin was obtained from Calbiochem (CA, USA). Secondary anti-mouse IgG HRP conjugate antibody was purchased from Calbiochem and Bio-Rad. Secondary anti-rabbit IgG HRP conjugate antibody was bought from Bio-Rad as well as from Kirkegaard and Perry laboratories (Gaithersburg, MD, USA). Immunoreactive bands were visualised using the enhanced chemiluminescence detection reagents and analysis system (Amersham Bioscences) according to the manufacturer's instructions and quantified by densitometry using ImageQuant software version 5.
Figure 7 (A) Western immunoblotting of whole-cell lysates of treated MCF-7 and T47D cells for the expression of Bad. […] Numbers below the blot show fold increase in expression of the protein as analysed by ImageQuant densitometry analysis. Membranes were stripped and probed for β-actin to verify equal protein loading. Primary antibody (Cell Signaling Technology) 1 : 1000 in 5% BSA TBST overnight at 4°C and secondary antibody (anti-rabbit) 1 : 2000 for 1 h at RT. This experiment was repeated twice with similar results. […] Numbers below the blot show fold increase in the active form of caspase-9 as compared with control. Membrane was stripped and probed for β-actin to verify equal amount of protein loading. The primary and secondary antibodies and their dilutions are as follows: primary antibody (Cell Signaling Technology), 1 : 1000 in 10% milk TBST overnight at 4°C and secondary antibody (anti-rabbit) 1 : 2000 in 10% milk TBST for 1 h at RT. Densitometry analysis was performed by ImageQuant software. This experiment was repeated twice with similar results. (C) Western immunoblotting of whole-cell lysates of treated MCF-7 and T47D cells for the expression of full-length and cleaved PARP. […] T47D cells were treated with RAMBAs (VN/50-1 and VN/14-1) for 6 days and then cell lysates were electrophoresed using 10% SDS–PAGE and subjected to Western blotting. Lane 1: control; lanes 2–4: VN/50-1 (1, 5 and 10 μM); lanes 5–7: VN/14-1 (1, 5 and 10 μM). Numbers below the blot show fold increase in expression of the protein as analysed by ImageQuant densitometry analysis. Membranes were stripped and probed for β-actin to verify equal protein loading. Primary antibody (Cell Signaling Technology) 1 : 1000 in 5% milk TBST overnight at 4°C and secondary antibody (anti-rabbit) 1 : 2000 for 1 h at RT. […]

ER-α = test: Western immunoblotting for ER-α in MCF-7 cells; type: cell-based, human; conditions: 1–10 μM, 6 days, dose-dependent
Description: as §1
(§2) Protein lysates from MCF-7 and T47D cells were subjected to sodium dodecyl sulphate–polyacrylamide gel electrophoresis (SDS–PAGE) and immunoblotted for different proteins. […] Immunoreactive bands were visualised using the enhanced chemiluminescence detection reagents and analysis system (Amersham Bioscences) according to the manufacturer's instructions and quantified by densitometry using ImageQuant software version 5.
Figure 4 Western immunoblotting analysis of whole-cell lysates of treated MCF-7 cells for the expression of ER-α. […] Numbers below the blot show fold increase in expression of the protein as analysed by ImageQuant densitometry analysis. […]

PARP = test: Western immunoblotting for cleaved PARP in MCF-7 cells; type: cell-based, human; conditions: 5 μM, 6 days
Description: as §1, §2
Figure 7 (A) Western immunoblotting of whole-cell lysates of treated MCF-7 and T47D cells for the expression of Bad. […] Numbers below the blot show fold increase in expression of the protein as analysed by ImageQuant densitometry analysis. […]

MCF-7 tumour xenografts = test: In vivo antitumour study, established MCF-7 tumour xenografts; conditions: for Antitumour effect relative to ATRA / 4-HPR (33.0 μmol kg^−1 day^−1), in words: VN/14-1 16.5 μmol kg^−1 day^−1, VN/66-1 66.0 μmol kg^−1 day^−1; for Reduction in mean tumour volume compared with vehicle control / Reduction in mean tumour volume compared with the ATRA group (10 mg kg^−1 day^−1): 6 weeks
Description: All the animal studies were performed according to the guidelines and approval of the Animal Care Committee of the University of Maryland, School of Medicine. Ovariectomised female athymic nude 4–6-week-old mice were used. […] Ovariectomised mice were then inoculated with MCF-7 cells (2 × 10^6 cells in Matrigel per tumour growth site) subcutaneously (s.c.) on the right and left flank. Tumour volumes were measured weekly with calipers. […] Retinoic acid metabolism blocking agents were formulated in 0.3% HPC (hydroxy propyl cellulose). […] Compounds were injected continuously for three days with a drug holiday of one day after every 3 days of treatment. Twice per week, the mice were weighed and tumours were measured using a caliper. Tumour volume was calculated according to the formula 4/3πr1^2r2 (r1<r2). The tumour treatment study was continued for 6 weeks. At the end of 6 weeks, mice were killed and blood plasma, as well as tumours, were collected, weighed and stored at −80°C until analysis.
Female ovariectomised nude mice bearing established MCF-7 tumour xenografts (200–300 mm^3) were grouped so that the mean tumour volume was similar for each group. […] Tumour sizes were measured twice a week after the start of treatment.
Ovariectomised female athymic nude 4–6-week-old mice were used. Oestrogen pellets (1.7 mg per pellet, 90 day release obtained from Innovative Research of America) were implanted in the mice using a trochar to facilitate tumour growth. Mice were then inoculated with MCF-7 cells (2 × 10^6 cells in Matrigel per tumour growth site) s.c. on the right and left flank. Tumours were allowed to grow for about 4–5 weeks till they were of measurable size (200–300 mm^3). The mice were then grouped as control and treatment groups. Twice every week the mice were weighed and tumours were measured using a caliper. Tumour volume was calculated according to the formula 4/3πr1^2r2 (r1<r2). The tumour treatment study was continued for 6 weeks. […] Mice were weighed twice every week during the 6-week antitumour study.

| Structure (SMILES) | Expression of procaspase-9 (47 kDa), control = 1 (caspase-9; 5 μM) | Increase of active form of caspase-9 (37 kDa) compared with untreated control (caspase-9; 5 μM) | Expression of procaspase-9 (47 kDa), control = 1 (caspase-9; 10 μM) | Increase of active form of caspase-9 (37 kDa) compared with untreated control (caspase-9; 10 μM) | Increase in expression of ER-α (ER-α) | Increase in level of cleaved PARP (89 kDa) compared with control (PARP) | Antitumour effect relative to ATRA / 4-HPR (33.0 μmol kg^−1 day^−1), in words (MCF-7 tumour xenografts) | Reduction in mean tumour volume compared with vehicle control (MCF-7 tumour xenografts; 16.5 μmol kg^−1 day^−1 s.c.) | Reduction in mean tumour volume compared with the ATRA group (10 mg kg^−1 day^−1) (MCF-7 tumour xenografts; 33.0 μmol kg^−1 day^−1 s.c.) | Reduction in mean tumour volume compared with vehicle control (MCF-7 tumour xenografts; 33.0 μmol kg^−1 day^−1 s.c.) | Reduction in mean final tumour weight compared with mice receiving vehicle alone (MCF-7 tumour xenografts; 66.0 μmol kg^−1 day^−1) | Reduction in mean tumour volume compared with the ATRA group (10 mg kg^−1 day^−1) (MCF-7 tumour xenografts; 66.0 μmol kg^−1 day^−1 s.c.) | Reduction in mean tumour volume compared with vehicle control (MCF-7 tumour xenografts; 66.0 μmol kg^−1 day^−1 s.c.) | Tumour regression in the antitumour efficacy studies (MCF-7 tumour xenografts; mouse, in vivo) |
| --- | --- | --- | --- | --- | --- | --- | --- | --- | --- | --- | --- | --- | --- | --- |
| CC1=C(/C=C/C(C)=C/C=C/C(C)=C/C(=O)O)C(C)(C)CCC1 [ATRA, all-trans-retinoic acid, reference compound] | 0.4 fold | 1.7 fold | 0.3 fold | 1.8 fold | from two- to eight-fold | almost two-fold increases |  |  |  |  |  |  |  |  |
| CC1=C(/C=C/C(C)=C/C=C/C(C)=C/C(=O)Nc2ccc(O)cc2)C(C)(C)CCC1n1ccnc1 (stereo not drawn) [VN/66-1] |  |  |  |  |  |  | not better than ATRA |  |  |  |  |  |  |  |
| CC1=C(/C=C/C(C)=C/C=C/C(C)=C/C(=O)O)C(C)(C)CCC1n1ccnc1 (stereo not drawn) [VN/14-1] | 0.4 fold | 1.7 fold | 0.7 fold | 1.7 fold | from four- to six-fold | almost two-fold increases | comparable with the antitumour effect of ATRA or 4-HPR | 66.5% | 45% | 79.4% | 92.6% | 75.61% | 92.6% | did not cause any tumour regressions |
